Data published in patent publication US10570164B2, “Steviol glycosides, their compositions and their purification” (The Coca-Cola Company, priority 2013, dated 2020).

Assays:
[1] = tested on: panelists; test: Taste evaluation: overall sweetness of 30 ppm solutions against sucrose controls (sweetness recognition threshold); type: in vivo, human; settings: for sweetness recognition threshold: lowest concentration perceivable by the human sense of taste; for sucrose equivalence / isosweetness of a solution of the compound alone: solution containing 30 ppm compound, no additional sweetener, isosweet sucrose solution
Experimental: (§1) Solutions were made by dissolving all ingredients in treated water. For citric acid buffer, citric acid and potassium citrate were added in a sufficient amount to bring the pH to 3.2. Finished products were filled in 300 ml glass bottles and stored in the refrigerator and tasted the following day.
(§2) Beverages in citric acid/sodium citrate buffer were kept at 4° C. in the refrigerator and tasted the following day. Four panelists evaluated the beverages. Bottles were removed from the refrigerator and about 20 ml of beverage poured in 2 oz. plastic cups. Panelists were instructed not to swallow the samples and additional cups were provided to spit the sample in. Mineral water was given for palate rinsing before tasting and between tasting different samples.
To evaluate 30 ppm of rebaudioside N and rebaudioside O for overall sweetness, panelists were provided solutions of 1%, 1.5%, and 2% sucrose in citric acid/sodium citrate buffer as controls. All panelists determined the overall sweetness of 30 ppm of rebaudioside N and rebaudioside O solutions in citric acid/sodium citrate buffer to fall between 1% and 1.5% sucrose controls. Accordingly, 30 ppm was determined to be the sweetness recognition threshold concentration for both compounds.

[2] = tested on: panelists; test: Taste evaluation: sweetness enhancement of 30 ppm added to 8% sucrose beverage against sucrose controls; type: in vivo, human; settings: for sweetness enhancement: 30 ppm compound added to beverage containing 8% sucrose, citric acid/sodium citrate buffer; for increase in isosweetness provided by the compound: 30 ppm compound in beverage with 8% (w/v) sucrose; for isosweetness of beverage containing sucrose and compound: beverage with 8% (w/v) sucrose and 30 ppm compound, isosweet sucrose solution
Experimental: as §1, §2
Sweetness enhancement of rebaudioside N and rebaudioside O was evaluated by adding 30 ppm to a solution of 8% sucrose in citric acid/sodium citrate buffer (pH 3.2). The new solutions were then evaluated for their overall sweetness against three controls of 8%, 9%, and 10% sucrose in citric acid/sodium citrate buffer solutions (pH 3.2).

| Structure (SMILES) | sweetness recognition threshold [1] | sucrose equivalence / isosweetness of a solution of the compound alone [1] | sweetness enhancement [2] | increase in isosweetness provided by the compound [2] | isosweetness of beverage containing sucrose and compound [2] | overall sweetness of beverage against sucrose controls ([2]; 30 ppm compound and 8% sucrose in citric acid/sodium citrate buffer (pH 3.2), 8%, 9%, 10% sucrose controls) |
| --- | --- | --- | --- | --- | --- | --- |
| C=C1C[C@@]23CCC4[C@](C)(C(=O)OC5OC(CO)C(O)C(OC6OC(CO)C(O)C(O)C6O)C5OC5OC(C)C(O)C(O)C5O)CCC[C@@]4(C)[C@@H]2CC[C@]1(OC1OC(CO)C(O)C(OC2OC(CO)C(O)C(O)C2O)C1OC1OC(CO)C(O)C(O)C1O)C3 (stereo partly drawn) [Compound (2f), 13-[(2-O-β-D-glucopyranosyl-3-O-β-D-glucopyranosyl-β-D-glucopyranosyl)oxy]ent-kaur-16-en-19-oic acid-[(2-O-α-D-rhamnopyranosyl-3-O-β-D-glucopyranosyl-β-D-glucopyranosyl)ester]] | about 30 ppm | 1.0-1.5 % (w/v) | 2.5-3.0% | 2.5-3.0 % (w/v) | 10.5-11.0 % (w/v) |  |
| C=C1C[C@@]23CCC4[C@](C)(C(=O)OC5OC(CO)C(O)C(OC6OC(CO)C(O)C(O)C6O)C5OC5OC(C)C(O)C(OC6OC(CO)C(O)C(O)C6O)C5O)CCC[C@@]4(C)[C@@H]2CC[C@]1(OC1OC(CO)C(O)C(OC2OC(CO)C(O)C(O)C2O)C1OC1OC(CO)C(O)C(O)C1O)C3 (stereo partly drawn) [Compound (2g), 13-[(2-O-β-D-glucopyranosyl-3-O-β-D-glucopyranosyl-β-D-glucopyranosyl)oxy]ent-kaur-16-en-19-oic acid-[(2-O-(3-O-β-D-glucopyranosyl-α-D-rhamnopyranosyl)-3-O-β-D-glucopyranosyl-β-D-glucopyranosyl)ester]] | about 30 ppm | 1.0-1.5 % (w/v) | about 2.0% | 2.0 % (w/v) | 10.0 % (w/v) | ~10% |
